Results on 32 molecules are retold here after US8217060B2, “Benzimidazole derivatives useful as TRP M8 receptor modulators” (Janssen Pharmaceutica, NV, priority 2009, dated 2012).

This experiment deals with T1, canine TRPM8 (Canis lupus familiaris, UniProt Q1A7N1).
T1 construct: expressed in transfected cells
Description: In Vitro Canine TRPM8 Functional Assay (icilin-induced intracellular Ca2+ fluorescence, FLIPR/FDSS). Type of experiment: cell-based. Conditions: HEK293 cells stably expressing canine TRPM8; for inhibition at 0.2 µM: 0.2 μM test compound, icilin challenge; for IC50: icilin challenge (~80% maximal response), eight-point dose-response. As for the experimental part:
The functional activity of representative compounds of the formula (I) of the present invention were measured by measuring changes in intracellular calcium concentration using a Ca^2+-sensitive fluorescent dye. The changes in fluorescent signal were monitored by a fluorescence plate reader, either a FLIPR™ (Molecular Devices) or FDSS (Hamamatsu).
HEK293 cells stably expressing canine TRPM8 were routinely grown as monolayers in Dulbecco's minimum essential medium supplemented with 10% FBS, 2 mM L-glutamine, 100 units/mL penicillin, 100 ug/mL streptomycin and 400 μg/mL G418. Cells were maintained in 5% CO2 at 37° C. At 24 hrs prior to assay, cells were seeded in black wall, clear-base poly-D-lysine coated 384-well plates (BD Biosciences, NJ, USA) at a density of 5,000 cells per well in culture medium and grown overnight in 5% CO2 at 37° C. On assay day, growth media was removed and cells were loaded with Calcium 3 Dye (Molecular Devices) for 35 min at 37° C., under 5% CO2 and then for 25 min at room temperature and atmosphere. Subsequently, cells were tested for agonist-induced increases in intracellular Ca^2+ levels using FLIPR™ or FDSS. Cells were challenged with compounds of the formula (I) (at varying concentrations) and intracellular Ca^2+ was measured for 5 min prior to the addition of icilin to all wells to achieve a final concentration that produces approximately an 80% maximal response.
Basal FI was subtracted prior to normalizing data to percent of maximal response. Curves were generated using the average of quadruplicate wells for each data point, were analyzed using nonlinear regression of either sigmoidal dose response or sigmoidal dose response (variable slope). Finally, the EC50 and IC50 values were calculated with the best-fit dose curve determined by GraphPad Prism

Where a name gives a salt, the structure may show the parent alone.

T1 sequence (Q1A7N1 1-1104): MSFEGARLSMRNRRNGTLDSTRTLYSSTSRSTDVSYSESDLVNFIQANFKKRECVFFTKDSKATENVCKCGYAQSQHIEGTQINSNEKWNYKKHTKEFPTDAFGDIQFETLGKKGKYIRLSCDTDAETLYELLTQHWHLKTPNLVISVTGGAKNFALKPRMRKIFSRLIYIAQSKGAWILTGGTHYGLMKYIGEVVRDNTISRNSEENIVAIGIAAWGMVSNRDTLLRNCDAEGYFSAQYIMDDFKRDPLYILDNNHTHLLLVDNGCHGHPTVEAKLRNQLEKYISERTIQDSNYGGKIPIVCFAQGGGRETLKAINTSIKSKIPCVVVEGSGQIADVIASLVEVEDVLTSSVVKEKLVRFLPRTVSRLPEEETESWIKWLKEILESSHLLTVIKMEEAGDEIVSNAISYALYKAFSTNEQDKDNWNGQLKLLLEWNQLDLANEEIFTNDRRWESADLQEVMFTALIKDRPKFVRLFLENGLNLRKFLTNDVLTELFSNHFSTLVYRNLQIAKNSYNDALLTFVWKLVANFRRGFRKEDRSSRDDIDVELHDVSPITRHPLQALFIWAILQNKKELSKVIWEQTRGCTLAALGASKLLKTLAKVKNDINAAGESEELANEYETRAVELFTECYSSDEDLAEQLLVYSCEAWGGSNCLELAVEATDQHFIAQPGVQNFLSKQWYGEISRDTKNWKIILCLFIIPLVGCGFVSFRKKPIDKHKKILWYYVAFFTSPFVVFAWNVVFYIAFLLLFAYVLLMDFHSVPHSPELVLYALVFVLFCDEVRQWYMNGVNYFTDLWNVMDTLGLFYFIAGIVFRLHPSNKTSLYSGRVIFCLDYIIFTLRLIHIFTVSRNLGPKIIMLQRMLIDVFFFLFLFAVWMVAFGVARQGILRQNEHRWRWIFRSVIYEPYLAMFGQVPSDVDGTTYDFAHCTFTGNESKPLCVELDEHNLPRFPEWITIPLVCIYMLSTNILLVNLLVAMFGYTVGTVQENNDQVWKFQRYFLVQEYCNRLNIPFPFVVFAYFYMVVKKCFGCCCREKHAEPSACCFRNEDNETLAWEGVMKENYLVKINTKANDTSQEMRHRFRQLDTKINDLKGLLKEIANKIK

`C(=CC1CCCCC1)c1nc2cc(-c3ccccc3)ccc2[nH]1` [Compound 2, 2-(2-Cyclohexyl-vinyl)-5-phenyl-1H-benzimidazole]: the inhibition (commonly the change of the read-out against control, counted positive when it falls) at 0.2 µM is 96% and the IC50 (as a rule, the concentration that inhibits the measured activity by half) was 110 nM.

With `Cc1ccccc1-c1ccc2[nH]c(C=CC3CCCCC3)nc2c1` [Compound 3, 2-(2-Cyclohexyl-vinyl)-5-o-tolyl-1H-benzimidazole], the inhibition at 0.2 µM came out at 103% and the IC50 was 7 nM. As to `FC(F)(F)COc1ccccc1-c1ccc2[nH]c(C=CC3CCCCC3)nc2c1` [Compound 4, 2-(2-Cyclohexyl-vinyl)-5-[2-(2,2,2-trifluoro-ethoxy)-phenyl]-1H-benzimidazole], the inhibition at 0.2 µM worked out at 103% and inhibition was half-maximal at 3 nM (IC50). In the case of `Oc1cccc(-c2ccc3[nH]c(C=CC4CCCCC4)nc3c2)c1` [Compound 5, 3-[2-(2-Cyclohexyl-vinyl)-1H-benzimidazol-5-yl]-phenol], the inhibition at 0.2 µM is 18%.

Turning to `OCc1ccccc1-c1ccc2[nH]c(/C=C/C3CCCCC3)nc2c1` [Compound 6], the inhibition at 0.2 µM is 103% and the IC50 was 12 nM. With `CC1(c2ccccc2-c2ccc3[nH]c(C=CC4CCCCC4)nc3c2)OCCO1` [Compound 7, 2-(2-Cyclohexyl-vinyl)-5-[2-(2-methyl-[1,3]dioxolan-2-yl)-phenyl]-1H-benzimidazole], the inhibition at 0.2 µM turned out to be 103% and the IC50 was 34 nM. For `CC(=O)c1ccccc1-c1ccc2[nH]c(C=CC3CCCCC3)nc2c1` [Compound 8, 1-{2-[2-(2-Cyclohexyl-vinyl)-1H-benzimidazol-5-yl]-phenyl}-ethanone] the same measures were 97% and 41 nM.

Consider `Fc1ccc(Cl)c(-c2ccc3[nH]c(C=CC4CCCCC4)nc3c2)c1` [Compound 9, 5-(2-Chloro-5-fluoro-phenyl)-2-(2-cyclohexyl-vinyl)-1H-benzimidazole], for which the inhibition at 0.2 µM stood at 101% and the IC50 was 11 nM. For `Fc1cccc(Cl)c1-c1ccc2[nH]c(C=CC3CCCCC3)nc2c1` [Compound 10, 5-(2-Chloro-6-fluoro-phenyl)-2-(2-cyclohexyl-vinyl)-1H-benzimidazole] the same measures were 101% and 6 nM. As for `COc1cccc(F)c1-c1ccc2[nH]c(C=CC3CCCCC3)nc2c1` [Compound 11, 2-(2-Cyclohexyl-vinyl)-5-(2-fluoro-6-methoxy-phenyl)-1H-benzimidazole], the inhibition at 0.2 µM came out at 102% and the concentration for half-maximal inhibition (IC50) was found to be 32 nM.

Take `COc1cc(F)ccc1-c1ccc2[nH]c(C=CC3CCCCC3)nc2c1` [Compound 12, 2-(2-Cyclohexyl-vinyl)-5-(4-fluoro-2-methoxy-phenyl)-1H-benzimidazole]: the inhibition at 0.2 µM was 92% and the 50% inhibitory concentration (IC50) stood at 39 nM. On to `COc1cccc(OC)c1-c1ccc2[nH]c(C=CC3CCCCC3)nc2c1` [Compound 14, 2-(2-Cyclohexyl-vinyl)-5-(2,6-dimethoxy-phenyl)-1H-benzimidazole], for which the inhibition at 0.2 µM turned out to be 95% and half-maximal inhibition (IC50) was put at 2 nM. In the case of `Fc1cccc(F)c1-c1ccc2[nH]c(C=CC3CCCCC3)nc2c1` [Compound 15, 2-(2-Cyclohexyl-vinyl)-5-(2,6-difluoro-phenyl)-1H-benzimidazole], the inhibition at 0.2 µM was 102% and the IC50 is 28 nM.

Turning to `Fc1ccccc1-c1ccc2[nH]c(C=CC3CCCCC3)nc2c1` [Compound 16, 2-(2-Cyclohexyl-vinyl)-5-(2-fluoro-phenyl)-1H-benzimidazole], the inhibition at 0.2 µM was 102% and 14 nM corresponded to half-maximal inhibition (IC50).

Turning to `Cc1ccsc1-c1ccc2[nH]c(C=CC3CCCCC3)nc2c1` [Compound 17, 2-(2-Cyclohexyl-vinyl)-5-(3-methyl-thiophen-2-yl)-1H-benzimidazole], the inhibition at 0.2 µM came to 102% and the IC50 came out at 17 nM.

For the molecule `COc1ccc(Cl)c(-c2ccc3[nH]c(C=CC4CCCCC4)nc3c2)c1` [Compound 18, 5-(2-Chloro-5-methoxy-phenyl)-2-(2-cyclohexyl-vinyl)-1H-benzimidazole], the inhibition at 0.2 µM was 101% and the IC50 was 32 nM. Turning to `Clc1ccc(Cl)c(-c2ccc3[nH]c(C=CC4CCCCC4)nc3c2)c1` [Compound 19, 2-(2-Cyclohexyl-vinyl)-5-(2,5-dichloro-phenyl)-1H-benzimidazole], the inhibition at 0.2 µM came to 86% and the concentration for half-maximal inhibition (IC50) was determined as 34 nM.

Regarding `COc1ccc(Cl)cc1-c1ccc2[nH]c(C=CC3CCCCC3)nc2c1` [Compound 20, 5-(5-Chloro-2-methoxy-phenyl)-2-(2-cyclohexyl-vinyl)-1H-benzimidazole], the inhibition at 0.2 µM was 85% and half-maximal inhibition (IC50) required 53 nM. With `Fc1ccc(F)c(-c2ccc3[nH]c(C=CC4CCCCC4)nc3c2)c1` [Compound 22, 2-(2-Cyclohexyl-vinyl)-5-(2,5-difluoro-phenyl)-1H-benzimidazole], the inhibition at 0.2 µM is 101% and the IC50 was 31 nM. As to `Fc1ccccc1-c1ccc2[nH]c(C=CC3CCCC3)nc2c1` [Compound 24, 2-(2-Cyclopentyl-vinyl)-5-(2-fluoro-phenyl)-1H-benzimidazole], the inhibition at 0.2 µM amounted to 85% and the IC50 worked out at 97 nM. For `Cc1ccsc1-c1ccc2[nH]c(C=CC3CCCC3)nc2c1` [Compound 25, 2-(2-Cyclopentyl-vinyl)-5-(3-methyl-thiophen-2-yl)-1H-benzimidazole], the inhibition at 0.2 µM is 102% and the IC50 was found to be 13 nM.

`FC(F)(F)Oc1ccccc1-c1ccc2nc(C=CC3CCCC3)[nH]c2c1` [Compound 26, 2-(2-Cyclopentyl-vinyl)-5-(2-trifluoromethoxy-phenyl)-1H-benzimidazole]: the inhibition at 0.2 µM came to 100% and the IC50 was determined as 33 nM. Consider `N#Cc1ccccc1-c1ccc2[nH]c(C=CC3CCCC3)nc2c1` [Compound 27, 2-[2-(2-Cyclopentyl-vinyl)-1H-benzimidazol-5-yl]-benzonitrile], for which the inhibition at 0.2 µM is 100% and the IC50 was 47 nM.

With `OCc1ccccc1-c1ccc2[nH]c(C=CC3CCCC3)nc2c1` [Compound 28, {2-[2-(2-Cyclopentyl-vinyl)-1H-benzimidazol-5-yl]-phenyl}-methanol], the inhibition at 0.2 µM was 95% and half-maximal inhibition (IC50) required 42 nM.

As to `CC(=O)c1ccccc1-c1ccc2[nH]c(C=CC3CCCC3)nc2c1` [Compound 29, 1-{2-[2-(2-Cyclopentyl-vinyl)-1H-benzimidazol-5-yl]-phenyl}-ethanone], the inhibition at 0.2 µM was determined as 77% and the 50% inhibitory concentration (IC50) stood at 170 nM. In the case of `FC1=CCC(C=Cc2nc3cc(-c4ccccc4C(F)(F)F)ccc3[nH]2)CC1` (stereo not drawn) [Compound 31, 2-[2-(4-Fluoro-cyclohex-3-enyl)-vinyl]-5-(2-trifluoromethyl-phenyl)-1H-benzimidazole], the inhibition at 0.2 µM turned out to be 102% and inhibition was half-maximal at 6 nM (IC50).

Turning to `FC1=CCC(C=Cc2nc3cc(-c4ccccc4OC(F)(F)F)ccc3[nH]2)CC1` (stereo not drawn) [Compound 32, 2-[2-(4-Fluoro-cyclohex-3-enyl)-vinyl]-5-(2-trifluoromethoxy-phenyl)-1H-benzoimidazole hydrochloride salt], the inhibition at 0.2 µM is 101% and inhibition was half-maximal at 5.2 nM (IC50). On to `COc1ccc(F)cc1-c1ccc2[nH]c(C=CC3CC=C(F)CC3)nc2c1` (stereo not drawn) [Compound 33, 2-[2-(4-Fluoro-cyclohex-3-enyl)-vinyl]-5-(5-fluoro-2-methoxy-phenyl)-1H-benzoimidazole hydrochloride salt], for which the inhibition at 0.2 µM was 101% and the IC50 came out at 9 nM. Consider `FC1=CCC(C=Cc2nc3cc(-c4ccccc4Cl)ccc3[nH]2)CC1` (stereo not drawn) [Compound 34, 5-(2-Chloro-phenyl)-2-[2-(4-fluoro-cyclohex-3-enyl)-vinyl]-1H-benzoimidazole hydrochloride salt], for which the inhibition at 0.2 µM was determined as 101% and the IC50 was 5 nM. As to `Cc1cccc(C)c1-c1ccc2[nH]c(C=CC3CC=C(F)CC3)nc2c1` (stereo not drawn) [Compound 35, 5-(2,6-Dimethyl-phenyl)-2-[2-(4-fluoro-cyclohex-3-enyl)-vinyl]-1H-benzoimidazole hydrochloride salt], the inhibition at 0.2 µM stood at 100% and the midpoint of inhibition, the IC50, lay at 4 nM. With `FC1=CCC(C=Cc2nc3cc(-c4ccccc4F)ccc3[nH]2)CC1` (stereo not drawn) [Compound 36, 2-[2-(4-Fluoro-cyclohex-3-enyl)-vinyl]-5-(2-fluoro-phenyl)-1H-benzoimidazole hydrochloride salt], the inhibition at 0.2 µM worked out at 100% and the midpoint of inhibition, the IC50, lay at 16 nM.

With `FC1(F)CCC(C=Cc2nc3cc(-c4ccccc4OC(F)(F)F)ccc3[nH]2)CC1` [Compound 37, 2-[2-(4,4-Difluoro-cyclohexyl)-vinyl]-5-(2-trifluoromethoxy-phenyl)-1H-benzoimidazole hydrochloride salt], the inhibition at 0.2 µM was 100% and the half-inhibitory concentration (IC50) stood at 8 nM.
